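The compound was tested at five concentrations on cells cultured in 96-well plates, with a 48-hour exposure period. At the TGI there is no net growth.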
Legend:
Assay in all cases: inhibition of tumour cell growth, NCI panel, 48 h
MALME-3M melanoma = tested on: MALME-3M melanoma
MOLT-4 leukemia = tested on: MOLT-4 leukemia
SW-620 colon = tested on: SW-620 colon
SNB-75 CNS = tested on: SNB-75 CNS
MDA-MB-231 breast = tested on: MDA-MB-231 breast
SF-295 CNS = tested on: SF-295 CNS
SF-539 CNS = tested on: SF-539 CNS
CCRF-CEM leukemia = tested on: CCRF-CEM leukemia
M14 melanoma = tested on: M14 melanoma
ACHN renal = tested on: ACHN renal
MDA-MB-435 = tested on: MDA-MB-435
U251 CNS = tested on: U251 CNS
RXF 393 renal = tested on: RXF 393 renal
HT29 colon = tested on: HT29 colon
NCI-H522 lung = tested on: NCI-H522 lung
TK-10 renal = tested on: TK-10 renal
HCT-15 colon = tested on: HCT-15 colon

| SMILES | TGI (MALME-3M melanoma) [µM] | TGI (MOLT-4 leukemia) [µM] | TGI (SW-620 colon) [µM] | TGI (SNB-75 CNS) [µM] | TGI (MDA-MB-231 breast) [µM] | TGI (SF-295 CNS) [µM] | TGI (SF-539 CNS) [µM] | TGI (CCRF-CEM leukemia) [µM] | TGI (M14 melanoma) [µM] | TGI (ACHN renal) [µM] | TGI (MDA-MB-435) [µM] | TGI (U251 CNS) [µM] | TGI (RXF 393 renal) [µM] | TGI (HT29 colon) [µM] | TGI (NCI-H522 lung) [µM] | TGI (TK-10 renal) [µM] | TGI (HCT-15 colon) [µM] |
| --- | --- | --- | --- | --- | --- | --- | --- | --- | --- | --- | --- | --- | --- | --- | --- | --- | --- |
| CSc1nc2c(c(N3CCOCC3)n1)C(O)n1c(nc3ccccc31)S2 (stereo not given) | > 100 | > 100 | > 100 | 81.9 | > 100 | > 100 | 8.77 | > 100 | > 100 | > 100 | > 100 | > 100 | > 100 | > 100 | > 100 | > 100 | > 100 |
| COC(=O)[C@H]1COC(=O)N1 | > 100 | > 100 | > 100 | > 100 | > 100 | > 100 | > 100 | > 100 | > 100 | > 100 | > 100 | > 100 | > 100 | > 100 | > 100 | > 100 | > 100 |
| CC(C)(C)OC(=O)NCCNCCNc1ccccc1 | > 100 | > 100 | > 100 | > 100 | > 100 | > 100 | > 100 | > 100 | > 100 | > 100 | > 100 | > 100 | > 100 | > 100 | > 100 | > 100 | > 100 |
| COc1cccc(Nc2nc(N)nc(N)c2N)c1 | > 100 | 34.5 | 91.1 | > 100 | 58.5 | 60.7 | > 100 | 52.7 | > 100 | > 100 | > 100 | > 100 | > 100 | > 100 | > 100 | > 100 | > 100 |
| O=c1[nH]nc(-c2ccccc2)n1/N=C/c1ccccc1Cl | 86.4 | 56.5 | > 100 | > 100 | > 100 | > 100 | > 100 | > 100 | > 100 | > 100 | 60.2 | > 100 | 67.4 | > 100 | 43.9 | > 100 | > 100 |
| COc1cc2c(cc1OC)C(=O)C1(C2)[C@H](c2ccccc2)C2C(=O)c3cc(OC)c(OC)cc3C2[C@H]1c1ccccc1 (stereo not given in full) | > 100 | > 100 | > 100 | > 100 | > 100 | > 100 | > 100 | > 100 | > 100 | > 100 | > 100 | > 100 | > 100 | > 100 | > 100 | > 100 | > 100 |
| CCCCCCCCCCCCCCCCCCNc1nc(=O)n(C2CC(O)C(COP(=O)(O)OCC3OC(n4ccc(N)nc4=O)C(O)C3O)O2)cc1F (stereo not given) | > 100 | > 100 | > 100 | > 100 | 72.5 | > 100 | > 100 | > 100 | > 100 | > 100 | > 100 | > 100 | > 100 | 29.2 | 65.3 | > 100 | 38 |
| CSc1nc(C)c(CCOC(C)=O)c(Cl)n1 | > 100 | > 100 | > 100 | > 100 | > 100 | > 100 | > 100 | > 100 | > 100 | > 100 | > 100 | > 100 | > 100 | > 100 | > 100 | > 100 | > 100 |
| O=C1c2ccccc2C2C1C(c1ccccc1)C1(Cc3ccccc3C1=O)C2c1ccccc1 (stereo not given) | > 100 | > 100 | > 100 | > 100 | > 100 | > 100 | > 100 | > 100 | > 100 | > 100 | > 100 | > 100 | > 100 | > 100 | > 100 | > 100 | > 100 |
| CC1(C)N=C(N)N=C(N)N1c1cccc(C(=O)Nc2ccc(S(=O)(=O)F)cc2)c1 | > 100 | > 100 | > 100 | > 100 | > 100 | > 100 | > 100 | > 100 | > 100 | > 100 | > 100 | > 100 | > 100 | > 100 | > 100 | > 100 | > 100 |

From PubChem BioAssay (NCI)
